Measurements taken from article PMC7252619 (PLoS ONE, 2020).
Read-outs that look alike come from different tables or passages of the source.

Legend:
Assay in all cases: Kinase activity test (ReactionBiology), % enzyme activity relative to DMSO
Assay type in all cases: biochemical
VEGFR2 = VEGFR2 (Homo sapiens, UniProt P35968); design: purchased ReactionBiology; conditions: VEGFR2;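 also: VEGFR2 was one member of a ten-kinase screening panel testing marketed FDA-approved drugs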
CK1d = target: T1, CK1d (Homo sapiens, UniProt P48730)
T1 construct: purchased ReactionBiology

DAPK1 = target: T2, DAPK1 (Homo sapiens, UniProt P53355)
T2 construct: purchased ReactionBiology

EPHB4 = target: T3, EPHB4 (Homo sapiens, UniProt P54760);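 also: EPHB4 was one of ten selected kinases in the screening panel, with enzyme activity expressed as a percentage of DMSO controls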
T3 construct: purchased ReactionBiology
T3 sequence (P54760 16-987): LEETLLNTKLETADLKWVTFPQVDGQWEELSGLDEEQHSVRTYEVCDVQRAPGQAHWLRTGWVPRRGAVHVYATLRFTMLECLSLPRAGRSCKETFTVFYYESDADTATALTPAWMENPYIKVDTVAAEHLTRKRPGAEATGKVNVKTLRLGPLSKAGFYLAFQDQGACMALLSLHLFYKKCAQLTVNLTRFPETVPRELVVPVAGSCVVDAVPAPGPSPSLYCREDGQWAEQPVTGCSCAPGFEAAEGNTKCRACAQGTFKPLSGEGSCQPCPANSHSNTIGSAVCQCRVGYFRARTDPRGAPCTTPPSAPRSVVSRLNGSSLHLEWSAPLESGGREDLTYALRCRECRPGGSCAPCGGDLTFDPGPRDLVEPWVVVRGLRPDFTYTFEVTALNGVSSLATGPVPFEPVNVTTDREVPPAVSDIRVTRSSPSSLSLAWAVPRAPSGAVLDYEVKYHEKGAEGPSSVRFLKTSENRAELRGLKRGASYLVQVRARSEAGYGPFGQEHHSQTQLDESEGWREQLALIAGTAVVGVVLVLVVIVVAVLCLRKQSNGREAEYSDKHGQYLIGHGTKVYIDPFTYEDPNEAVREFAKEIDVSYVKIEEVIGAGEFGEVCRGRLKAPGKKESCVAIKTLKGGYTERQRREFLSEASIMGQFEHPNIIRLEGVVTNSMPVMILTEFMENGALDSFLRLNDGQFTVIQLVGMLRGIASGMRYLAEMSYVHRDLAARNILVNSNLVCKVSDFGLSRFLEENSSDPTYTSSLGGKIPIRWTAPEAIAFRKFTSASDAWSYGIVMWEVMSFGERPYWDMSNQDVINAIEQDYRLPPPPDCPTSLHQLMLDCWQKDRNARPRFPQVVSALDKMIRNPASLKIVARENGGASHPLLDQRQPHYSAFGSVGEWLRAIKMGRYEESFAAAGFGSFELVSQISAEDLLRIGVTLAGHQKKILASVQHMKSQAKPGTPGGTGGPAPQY

NEK2 = target: T4, NEK2 (Homo sapiens, UniProt P51955); conditions: NEK2;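 also: FDA-approved drugs chosen by structure-based repositioning, each screened at 10 or 1 µM for kinase activity, expressed as percent of DMSO controls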
T4 construct: purchased ReactionBiology
T4 sequence (P51955 1-445): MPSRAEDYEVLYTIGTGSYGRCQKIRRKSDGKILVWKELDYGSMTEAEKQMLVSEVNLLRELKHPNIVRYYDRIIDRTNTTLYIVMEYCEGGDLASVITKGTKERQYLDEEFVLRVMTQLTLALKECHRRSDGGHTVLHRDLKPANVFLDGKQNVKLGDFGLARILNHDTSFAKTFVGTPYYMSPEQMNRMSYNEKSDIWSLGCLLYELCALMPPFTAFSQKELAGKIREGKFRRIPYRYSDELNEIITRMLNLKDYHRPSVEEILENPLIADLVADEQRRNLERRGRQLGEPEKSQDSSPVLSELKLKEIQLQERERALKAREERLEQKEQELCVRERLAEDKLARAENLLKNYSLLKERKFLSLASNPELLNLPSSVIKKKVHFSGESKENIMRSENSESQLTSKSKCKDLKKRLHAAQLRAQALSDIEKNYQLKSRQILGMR

[1] = Average, read-out: % Enzyme Activity (relative to DMSO controls), Average
[2] = replicate Data 1, read-out: % Enzyme Activity (relative to DMSO controls), Data 1
[3] = replicate Data 2, read-out: % Enzyme Activity (relative to DMSO controls), Data 2
[4] = 1 uM, Average, read-out: % Enzyme Activity (relative to DMSO controls), Average
[5] = 1 uM, replicate Data 1, read-out: % Enzyme Activity (relative to DMSO controls), Data 1
[6] = 1 uM, replicate Data 2, read-out: % Enzyme Activity (relative to DMSO controls), Data 2
[7] = 10 uM, Average, read-out: % Enzyme Activity (relative to DMSO controls), Average
[8] = 10 uM, replicate Data 1, read-out: % Enzyme Activity (relative to DMSO controls), Data 1
[9] = 10 uM, replicate Data 2, read-out: % Enzyme Activity (relative to DMSO controls), Data 2
[10] = CK1d, 1 uM, Average, read-out: % Enzyme Activity (relative to DMSO controls), Average
[11] = CK1d, 1 uM, replicate Data 1, read-out: % Enzyme Activity (relative to DMSO controls), Data 1
[12] = CK1d, 1 uM, replicate Data 2, read-out: % Enzyme Activity (relative to DMSO controls), Data 2
[13] = CK1d, 10 uM, Average, read-out: % Enzyme Activity (relative to DMSO controls), Average
[14] = CK1d, 10 uM, replicate Data 1, read-out: % Enzyme Activity (relative to DMSO controls), Data 1
[15] = CK1d, 10 uM, replicate Data 2, read-out: % Enzyme Activity (relative to DMSO controls), Data 2
[16] = EPHB4, 1 uM, Average, read-out: % Enzyme Activity (relative to DMSO controls), Average
[17] = EPHB4, 1 uM, replicate Data 1, read-out: % Enzyme Activity (relative to DMSO controls), Data 1
[18] = EPHB4, 1 uM, replicate Data 2, read-out: % Enzyme Activity (relative to DMSO controls), Data 2
[19] = EPHB4, 10 uM, Average, read-out: % Enzyme Activity (relative to DMSO controls), Average
[20] = EPHB4, 10 uM, replicate Data 1, read-out: % Enzyme Activity (relative to DMSO controls), Data 1
[21] = EPHB4, 10 uM, replicate Data 2, read-out: % Enzyme Activity (relative to DMSO controls), Data 2
[22] = DAPK1, 1 uM, Average, read-out: % Enzyme Activity (relative to DMSO controls), Average
[23] = DAPK1, 1 uM, replicate Data 1, read-out: % Enzyme Activity (relative to DMSO controls), Data 1
[24] = DAPK1, 1 uM, replicate Data 2, read-out: % Enzyme Activity (relative to DMSO controls), Data 2
[25] = DAPK1, 10 uM, Average, read-out: % Enzyme Activity (relative to DMSO controls), Average
[26] = DAPK1, 10 uM, replicate Data 1, read-out: % Enzyme Activity (relative to DMSO controls), Data 1
[27] = DAPK1, 10 uM, replicate Data 2, read-out: % Enzyme Activity (relative to DMSO controls), Data 2
[28] = read-out: % Enzyme Activity (relative to DMSO controls), Average
[29] = read-out: % Enzyme Activity (relative to DMSO controls), Data 1
[30] = read-out: % Enzyme Activity (relative to DMSO controls), Data 2

T2 sequence (P53355 whole entry): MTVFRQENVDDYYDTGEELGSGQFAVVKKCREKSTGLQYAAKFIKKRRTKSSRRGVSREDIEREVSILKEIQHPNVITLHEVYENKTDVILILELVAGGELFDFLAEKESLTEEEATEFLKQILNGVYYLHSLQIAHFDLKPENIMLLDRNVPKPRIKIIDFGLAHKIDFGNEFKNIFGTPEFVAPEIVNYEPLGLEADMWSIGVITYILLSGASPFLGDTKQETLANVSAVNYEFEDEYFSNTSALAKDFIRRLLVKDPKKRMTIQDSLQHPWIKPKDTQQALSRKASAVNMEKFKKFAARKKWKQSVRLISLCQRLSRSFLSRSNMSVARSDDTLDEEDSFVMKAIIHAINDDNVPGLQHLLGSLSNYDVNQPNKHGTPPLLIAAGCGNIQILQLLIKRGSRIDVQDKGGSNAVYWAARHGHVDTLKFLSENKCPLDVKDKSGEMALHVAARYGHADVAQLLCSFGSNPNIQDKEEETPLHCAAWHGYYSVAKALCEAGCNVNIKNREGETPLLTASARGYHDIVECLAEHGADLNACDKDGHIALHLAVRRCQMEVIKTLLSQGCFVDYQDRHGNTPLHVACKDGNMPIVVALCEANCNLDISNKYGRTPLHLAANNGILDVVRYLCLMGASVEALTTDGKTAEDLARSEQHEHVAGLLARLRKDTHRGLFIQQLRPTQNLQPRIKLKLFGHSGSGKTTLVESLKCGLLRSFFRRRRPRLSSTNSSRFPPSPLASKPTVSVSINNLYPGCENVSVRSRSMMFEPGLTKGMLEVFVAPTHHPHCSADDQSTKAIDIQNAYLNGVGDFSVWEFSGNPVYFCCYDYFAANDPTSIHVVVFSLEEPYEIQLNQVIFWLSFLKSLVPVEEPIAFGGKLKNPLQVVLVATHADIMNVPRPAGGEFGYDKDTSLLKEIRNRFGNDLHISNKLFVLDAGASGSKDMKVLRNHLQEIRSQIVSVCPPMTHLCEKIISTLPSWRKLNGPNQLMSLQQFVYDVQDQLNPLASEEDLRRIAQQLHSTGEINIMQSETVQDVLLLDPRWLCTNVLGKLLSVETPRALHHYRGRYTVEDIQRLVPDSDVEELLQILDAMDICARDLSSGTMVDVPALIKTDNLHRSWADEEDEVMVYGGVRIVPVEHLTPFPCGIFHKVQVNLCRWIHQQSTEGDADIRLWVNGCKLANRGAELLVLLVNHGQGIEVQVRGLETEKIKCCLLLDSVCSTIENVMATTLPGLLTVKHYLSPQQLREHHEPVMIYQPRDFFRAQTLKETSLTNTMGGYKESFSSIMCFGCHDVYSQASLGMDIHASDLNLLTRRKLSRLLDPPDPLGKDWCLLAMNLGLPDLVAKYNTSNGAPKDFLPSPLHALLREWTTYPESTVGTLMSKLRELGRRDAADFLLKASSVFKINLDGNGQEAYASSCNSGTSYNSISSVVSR
Sequence of VEGFR2 (P35968 20-1356): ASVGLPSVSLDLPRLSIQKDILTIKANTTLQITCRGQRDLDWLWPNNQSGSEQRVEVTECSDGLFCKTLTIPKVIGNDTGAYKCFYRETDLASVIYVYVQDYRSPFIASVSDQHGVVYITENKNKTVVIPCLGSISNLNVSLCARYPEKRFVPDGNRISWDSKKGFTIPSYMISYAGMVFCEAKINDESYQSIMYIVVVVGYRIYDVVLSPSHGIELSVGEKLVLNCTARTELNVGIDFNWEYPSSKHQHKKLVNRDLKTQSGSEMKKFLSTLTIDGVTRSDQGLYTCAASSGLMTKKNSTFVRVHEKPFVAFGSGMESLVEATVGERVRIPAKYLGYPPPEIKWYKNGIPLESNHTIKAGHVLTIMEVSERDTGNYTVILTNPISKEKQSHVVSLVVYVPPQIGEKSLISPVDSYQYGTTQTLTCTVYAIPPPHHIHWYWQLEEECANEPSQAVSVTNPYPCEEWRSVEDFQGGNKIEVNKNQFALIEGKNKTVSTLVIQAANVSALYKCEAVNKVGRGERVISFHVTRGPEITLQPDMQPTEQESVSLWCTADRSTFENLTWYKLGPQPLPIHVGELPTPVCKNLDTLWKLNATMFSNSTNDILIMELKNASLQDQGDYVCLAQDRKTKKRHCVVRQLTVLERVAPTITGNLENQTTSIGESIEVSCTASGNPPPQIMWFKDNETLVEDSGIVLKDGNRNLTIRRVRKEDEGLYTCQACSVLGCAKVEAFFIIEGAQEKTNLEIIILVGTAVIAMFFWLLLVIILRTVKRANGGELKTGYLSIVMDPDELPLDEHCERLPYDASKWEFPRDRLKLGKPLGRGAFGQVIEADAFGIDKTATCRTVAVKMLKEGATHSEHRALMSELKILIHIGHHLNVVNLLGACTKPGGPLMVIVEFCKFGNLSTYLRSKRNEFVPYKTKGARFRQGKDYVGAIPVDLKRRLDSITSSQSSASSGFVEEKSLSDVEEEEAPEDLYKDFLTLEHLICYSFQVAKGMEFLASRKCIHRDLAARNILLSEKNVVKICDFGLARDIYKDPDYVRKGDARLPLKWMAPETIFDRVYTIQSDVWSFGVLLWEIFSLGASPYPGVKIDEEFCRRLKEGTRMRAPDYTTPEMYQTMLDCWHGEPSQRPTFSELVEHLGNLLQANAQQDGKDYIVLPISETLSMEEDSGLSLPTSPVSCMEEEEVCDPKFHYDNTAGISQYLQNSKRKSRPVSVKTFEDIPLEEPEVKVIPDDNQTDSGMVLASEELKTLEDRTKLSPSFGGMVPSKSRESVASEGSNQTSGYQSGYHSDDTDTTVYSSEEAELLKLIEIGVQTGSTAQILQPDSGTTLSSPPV
T1 sequence (P48730 whole entry): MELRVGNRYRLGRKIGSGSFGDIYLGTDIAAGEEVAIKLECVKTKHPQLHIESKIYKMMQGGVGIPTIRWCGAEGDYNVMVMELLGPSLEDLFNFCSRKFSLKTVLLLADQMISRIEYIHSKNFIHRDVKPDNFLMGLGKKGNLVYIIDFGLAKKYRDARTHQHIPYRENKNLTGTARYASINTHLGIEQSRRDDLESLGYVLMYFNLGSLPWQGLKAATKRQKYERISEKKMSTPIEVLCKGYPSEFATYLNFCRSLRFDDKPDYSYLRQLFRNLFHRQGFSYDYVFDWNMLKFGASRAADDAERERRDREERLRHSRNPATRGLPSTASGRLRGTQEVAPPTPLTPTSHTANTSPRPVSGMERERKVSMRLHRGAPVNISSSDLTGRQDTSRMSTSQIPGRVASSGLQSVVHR

SMILES | remaining activity at 1 µM (VEGFR2; [4]) [%] | remaining activity at 1 µM (VEGFR2; [5]) [%] | remaining activity at 1 µM (VEGFR2; [6]) [%] | remaining activity at 10 µM (VEGFR2; [7]) [%] | remaining activity at 10 µM (VEGFR2; [8]) [%] | remaining activity at 10 µM (VEGFR2; [9]) [%] | remaining activity at 1 µM (CK1d; [10]) [%] | remaining activity at 1 µM (CK1d; [11]) [%] | remaining activity at 1 µM (CK1d; [12]) [%] | remaining activity at 10 µM (CK1d; [13]) [%] | remaining activity at 10 µM (CK1d; [14]) [%] | remaining activity at 10 µM (CK1d; [15]) [%] | remaining activity at 1 µM (EPHB4; [16]) [%] | remaining activity at 1 µM (EPHB4; [17]) [%] | remaining activity at 1 µM (EPHB4; [18]) [%] | remaining activity at 10 µM (EPHB4; [19]) [%] | remaining activity at 10 µM (EPHB4; [20]) [%] | remaining activity at 10 µM (EPHB4; [21]) [%] | remaining activity at 1 µM (DAPK1; [22]) [%] | remaining activity at 1 µM (DAPK1; [23]) [%] | further results
COc1cc2c(c(OC)c1OC)-c1ccc(OC)c(=O)cc1[C@@H](NC(C)=O)CC2 [Colchicine] | – | – | – | – | – | – | – | – | – | – | – | – | – | – | – | – | – | – | – | – | % Enzyme Activity (relative to DMSO controls), Data 2 (VEGFR2; 1 uM, replicate Data 2): 110.08%; % Enzyme Activity (relative to DMSO controls), Data 2 (VEGFR2; 10 uM, replicate Data 2): 105.23%; % Enzyme Activity (relative to DMSO controls), Data 2 (CK1d; CK1d, 10 uM, replicate Data 2): 111.97%; % Enzyme Activity (relative to DMSO controls), Data 2 (DAPK1; DAPK1, 1 uM, replicate Data 2): 111.85%; % Enzyme Activity (relative to DMSO controls), Data 2 (DAPK1; DAPK1, 10 uM, replicate Data 2): 96.44%; % Enzyme Activity (relative to DMSO controls), Data 2 (EPHB4; EPHB4, 1 uM, replicate Data 2): 106.52%; % Enzyme Activity (relative to DMSO controls), Data 2 (EPHB4; EPHB4, 10 uM, replicate Data 2): 99.11%
O=C(O)c1ccccc1O [Salicylic acid] | 96.6 | 94.4 | 98.7 | 101 | 103 | 99.4 | 105 | 107 | 103 | 109 | 109 | 110 | 101 | 99.4 | 102 | 93.4 | 93 | 93.8 | – | – | remaining activity at 1 µM (NEK2; [1]): 88.2%; remaining activity at 1 µM (NEK2; [2]): 88.1%; remaining activity at 1 µM (NEK2; [3]): 88.3%; remaining activity at 10 µM (NEK2; [1]): 102%; remaining activity at 10 µM (NEK2; [2]): 93.8%; remaining activity at 10 µM (NEK2; [3]): 109%
CC(C)c1nc(CN(C)C(=O)N[C@H](C(=O)N[C@@H](Cc2ccccc2)C[C@H](O)[C@H](Cc2ccccc2)NC(=O)OCc2cncs2)C(C)C)cs1 [Ritonavir, reference compound] | 111 | 111 | 112 | 109 | 113 | 106 | – | – | – | – | – | – | 99.2 | 99.5 | 98.9 | 95.1 | 97.2 | 93.1 | 92.6 | 94.8 | remaining activity at 1 µM (DAPK1; [24]): 90.4%; remaining activity at 10 µM (DAPK1; [25]): 38.5%; remaining activity at 10 µM (DAPK1; [26]): 39.2%; remaining activity at 10 µM (DAPK1; [27]): 37.7%; remaining activity at 1 µM (DAPK1; DAPK1, compound 1μM, relative to DMSO controls, read-out: % Enzyme activity at 1μM): 92.6%; remaining activity at 10 µM (DAPK1; DAPK1, compound 10μM, relative to DMSO controls, read-out: % Enzyme activity at 10μM): 38.5%
CC(C)c1cccc(C(C)C)c1O [Propofol, reference compound] | – | – | – | – | – | – | – | – | – | – | – | – | – | – | – | – | – | – | – | – | remaining activity at 1 µM (CK1d; [28]): 126%; remaining activity at 10 µM (CK1d; [28]): 112%; remaining activity at 1 µM (CK1d; [29]): 145%; remaining activity at 10 µM (CK1d; [29]): 116%; remaining activity at 1 µM (CK1d; [30]): 108%; remaining activity at 10 µM (CK1d; [30]): 108%; remaining activity at 1 µM (DAPK1; [28]): 107%; remaining activity at 10 µM (DAPK1; [28]): 86.5%; remaining activity at 1 µM (DAPK1; [29]): 113%; remaining activity at 10 µM (DAPK1; [29]): 86.4%; remaining activity at 1 µM (DAPK1; [30]): 102%; remaining activity at 10 µM (DAPK1; [30]): 86.5%; remaining activity at 1 µM (EPHB4; [28]): 67%; remaining activity at 10 µM (EPHB4; [28]): 68.4%; remaining activity at 1 µM (EPHB4; [29]): 76%; remaining activity at 10 µM (EPHB4; [29]): 68.4%; remaining activity at 1 µM (EPHB4; [30]): 57.9%; remaining activity at 10 µM (EPHB4; [30]): 68.5%; remaining activity at 1 µM (EPHB4; read-out: % Enzyme activity at 1μM): 67%; remaining activity at 10 µM (EPHB4; read-out: % Enzyme activity at 10μM): 68.4%
CC(=O)O[C@H]1C[C@@]2(C)[C@@H](C[C@@H](O)[C@H]3[C@@]4(C)CC[C@@H](O)[C@@H](C)[C@@H]4CC[C@@]32C)/C1=C(\CCC=C(C)C)C(=O)O [Fusidic acid] | 109 | 110 | 107 | 101 | 96 | 105 | 100 | 95.3 | 105 | 111 | 113 | 108 | 101 | 101 | 101 | 92.3 | 95.3 | 89.3 | 96.4 | 102 | remaining activity at 1 µM (DAPK1; [24]): 90.5%; remaining activity at 10 µM (DAPK1; [25]): 93.7%; remaining activity at 10 µM (DAPK1; [26]): 93%; remaining activity at 10 µM (DAPK1; [27]): 94.5%
NCCCCCC(=O)O [Aminocaproic acid] | – | – | – | – | – | – | 118 | 116 | 120 | 125 | 122 | 127 | 103 | 103 | 104 | 93.5 | 92.2 | 94.7 | 114 | 116 | remaining activity at 1 µM (DAPK1; [24]): 112%; remaining activity at 10 µM (DAPK1; [25]): 110%; remaining activity at 10 µM (DAPK1; [26]): 109%; remaining activity at 10 µM (DAPK1; [27]): 111%
